Results: patent publication US9345247B2, “Azaindole carboxylic acid amides and azaindole thiocarboxylic acid amides for use as insecticides and acaricides” (BAYER CROPSCIENCE AG, priority 2012, dated 2016)
Where two headings read alike, the source gives them in different places.

Assays:
[1] = log P by HPLC on reversed-phase column (C18), EEC directive 79/831 Annex V.A8; format: physicochemical; conditions: for chromatographic logP: reversed-phase HPLC column (C18)
Experimental: a) The determination of the W by LC-MS in the acidic range is effected at pH 2.7, acetonitrile (contains 0.1% formic acid) and water as eluents; linear gradient from 10% acetonitrile to 95% acetonitrile, instrument: Agilent 1100 LC-System, Agilent MSD System, HTS PAL. The log P values reported in the tables and Preparation Examples above were determined in accordance with EEC directive 79/831 Annex V.A8 by HPLC (High Performance Liquid Chromatography) using a reversed-phase column (C18). Temperature 43° C. The calibration is effected with unbranched alkan-2-ones (having 3 to 16 carbon atoms), for which the log P values are known.

[2] = system: larvae of the mustard beetle (Phaedon cochleariae); assay: Phaedon cochleariae spray test (PHAECO); format: in vivo; conditions: for efficacy / pest or weed control at 100 g/ha: spray, after 7 days; for pest or weed control at 100 g/ha / percent efficacy (larval mortality) at 20 g/ha: Phaedon cochleariae, 168 h; for pest or weed control at 100 g/ha: read-out: efficacy; for percent efficacy (larval mortality) at 20 g/ha: PHAECO, 20 g of ai/ha, 7 d, read-out: % Efficacy dat
Experimental: Phaedon cochleariae—Spray Test (PHAECO)
To produce a suitable preparation of active compound, 1 part by weight of active compound is mixed with the stated amounts of solvent and emulsifier, and the concentrate is diluted with emulsifier-containing water to the desired concentration.
Discs of Chinese cabbage leaves (Brassica pekinensis) are sprayed with an active compound formulation of the desired concentration and, after drying, populated with larvae of the mustard beetle (Phaedon cochleariae).
After 7 days, the efficacy in % is determined. 100% means that all the beetle larvae have been killed; 0% means that no beetle larvae have been killed.
After the stated period of time, the effect in % is determined 100% means that all the beetle larvae have been killed; 0% means that no beetle larvae have been killed.

[3] = HPLC, acidic range pH 2.7, 43° C.
[4] = HPLC, acidic range pH 2.7, 43° C., read-out: log p

Structure (SMILES) | log p [1, 3] | efficacy ([2]; 100 g/ha) [%] | also measured
CCn1c(C(=O)NC(c2ccc(F)c(C(F)(F)F)c2)C(F)(F)F)cc2nc(C(=O)NC3CC3)ccc21 (centres unmarked) [Compound 2, N^5-Cyclopropyl-1-ethyl-N^2-{2,2,2-trifluoro-1-[4-fluoro-3-(trifluoromethyl)phenyl]ethyl}-1H-pyrrolo[3,2-b]pyridine-2,5-dicarboxamide] | – | – | chromatographic logP ([1]; pH 2.7, final compounds of the synthesis examples, read-out: log P (HPLC-MS)): 3.78
CCn1c(C(=O)NC(c2cccc(C(F)(F)F)c2)C(F)(F)F)cc2cc(C(=O)NC(C)C)c(C)nc21 (centres unmarked) [Compound 4] | 3.74 | 100 | –
CCn1c(C(=O)NC(c2cccc(C(F)(F)F)c2)C(F)(F)F)cc2cc(C(=O)NC(CF)CF)c(C)nc21 (centres unmarked) [Compound 8] | 3.67 | 100 | –
CCn1c(C(=O)NC(c2cccc(C(F)(F)F)c2)C(F)(F)F)cc2cc(C(=O)NCC(F)F)c(Cl)nc21 (centres unmarked) [Compound 13] | 3.79 | 100 | –
CCn1c(C(=O)NC(c2cccc(C(F)(F)F)c2)C(F)(F)F)cc2cc(C(=O)NC(C)C)c(Cl)nc21 (centres unmarked) [Compound 14] | – | – | pest or weed control at 100 g/ha ([2]; 100 g/ha): 100%; percent efficacy (larval mortality) at 20 g/ha [2]: 100%; chromatographic logP [1, 4]: 3.97
CCn1c(C(=O)NC(c2cc(Cl)c(F)c(Cl)c2F)C(F)(F)F)cc2cc(C(=O)NC(C)C)c(Cl)nc21 (centres unmarked) [Compound 19] | 4.62 | – | –
CCn1c(C(=O)NC(c2cc(Cl)c(F)c(Cl)c2)C(F)(F)F)cc2cc(C(=O)NC3CC3)c(Cl)nc21 (centres unmarked) [Compound 20] | 4.23 | 100 | –
CCCNC(=O)c1cc2cc(C(=O)NC(c3cccc(C(F)(F)F)c3)C(F)(F)F)n(CC)c2nc1Cl (centres unmarked) [Compound 34] | – | – | pest or weed control at 100 g/ha ([2]; 100 g/ha): 100%; percent efficacy (larval mortality) at 20 g/ha [2]: 100%; chromatographic logP [1, 4]: 3.99
CCn1c(C(=O)NC(c2cccc(C(F)(F)F)c2)C(F)(F)F)cc2cc(C(=O)NC(CF)CF)c(Cl)nc21 (centres unmarked) [Compound 35] | 3.83 | – | –
CCn1c(C(=O)NC(c2cccc(C(F)(F)F)c2)C(F)(F)F)cc2cc(C(=O)NCc3ccccn3)c(Cl)nc21 (centres unmarked) [Compound 37] | 3.18 | 100 | –
CCn1c(C(=O)NC(c2cccc(C(F)(F)F)c2)C(F)(F)F)cc2cc(C(=O)Nc3ccc(Cl)cn3)c(Cl)nc21 (centres unmarked) [Compound 40] | 4.88 | 83 | efficacy ([2]; 500 g/ha): 100%
CCn1c(C(=O)NC(c2cc(Cl)c(F)c(Cl)c2)C(F)(F)F)cc2cc(C(=O)NC3CCC3)c(Cl)nc21 (centres unmarked) [Compound 48] | 4.62 | – | –
CCn1c(C(=O)NC(c2cccc(C(F)(F)F)c2)C(F)(F)F)cc2cc(C(=O)NC)c(Cl)nc21 (centres unmarked) [Compound 51] | 3.40 | 100 | –
CCn1c(C(=O)NC(c2ccc(F)c(C(F)(F)F)c2)C(F)(F)F)cc2cc(C(=O)NCc3ccccn3)c(Cl)nc21 (centres unmarked) [Compound 55] | 3.32 | 83 | –
CCn1c(C(=O)NC(c2cc(Cl)c(F)c(Cl)c2)C(F)(F)F)cc2cc(C(=O)NC3(C(N)=S)CC3)c(C(F)(F)F)nc21 (centres unmarked) [Compound 78] | 4.25 | – | –
C#CCn1c(C(=O)NC(c2cc(Cl)c(F)c(Cl)c2)C(F)(F)F)cc2cc(C(=O)NC3CC3)c(C(F)(F)F)nc21 (centres unmarked) [Compound 79] | 4.04 | – | –
CCn1c(C(=O)NC(c2cc(Cl)c(F)c(Cl)c2F)C(F)(F)F)cc2cc(C(=O)NC3CC3)c(C(F)(F)F)nc21 (centres unmarked) [Compound 87] | 4.66 | – | –
CCn1c(C(=O)NC(c2ccc(Cl)c(C(F)(F)F)c2)C(F)(F)F)cc2cc(C(=O)NC3CC3)c(Cl)nc21 (centres unmarked) [Compound 88] | 4.06 | – | –
CCn1c(C(=O)NC(c2ccc(Cl)c(C(F)(F)F)c2)C(F)(F)F)c(Br)c2cc(C(=O)NC3(C(N)=S)CC3)c(C)nc21 (centres unmarked) [Compound 98] | – | – | chromatographic logP [1, 4]: 3.97
CCn1c(C(=O)NC(c2cccc(C(F)(F)F)c2)C(F)(F)F)cc2cc(C(=O)NC(C)C)c(Cl)cc21 (centres unmarked) [reference compound] | – | – | percent efficacy (larval mortality) at 20 g/ha [2]: 0%
CCCNC(=O)c1cc2cc(C(=O)NC(c3cccc(C(F)(F)F)c3)C(F)(F)F)n(CC)c2cc1Cl (centres unmarked) [reference compound] | – | – | percent efficacy (larval mortality) at 20 g/ha [2]: 67%

Continued, in another order:

log p [1, 3] | Structure (SMILES) | efficacy ([2]; 100 g/ha) [%] | also measured
3.19 | CCn1c(C(=O)NC(c2cccc(C(F)(F)F)c2)C(F)(F)F)cc2cc(C(=O)NC3CC3)cnc21 (centres unmarked) [Compound 3] | 100 | –
4.43 | CCn1c(C(=O)NC(c2cc(Cl)c(F)c(Cl)c2F)C(F)(F)F)cc2cc(C(=O)NC3CC3)c(Cl)nc21 (centres unmarked) [Compound 18] | 100 | –
4.44 | CCn1c(C(=O)NC(c2cc(Cl)c(F)c(Cl)c2)C(F)(F)F)cc2cc(C(=O)NC(C)C)c(Cl)nc21 (centres unmarked) [Compound 21] | – | –
3.68 | C#CCn1c(C(=O)NC(c2cccc(C(F)(F)F)c2)C(F)(F)F)cc2cc(C(=O)NC(C)C)c(Cl)nc21 (centres unmarked) [Compound 24] | 100 | efficacy ([2]; 500 g/ha): 100%
3.83 | CCn1c(C(=O)NC(c2cccc(C(F)(F)F)c2)C(F)(F)F)cc2cc(C(=O)NC(C)CF)c(Cl)nc21 (centres unmarked) [Compound 36] | – | –
3.58 | CCn1c(C(=O)NC(c2cccc(C(F)(F)F)c2)C(F)(F)F)cc2cc(C(=O)NCC(=O)OC)c(Cl)nc21 (centres unmarked) [Compound 44] | – | –
3.69 | C#CCNC(=O)c1cc2cc(C(=O)NC(c3cccc(C(F)(F)F)c3)C(F)(F)F)n(CC)c2nc1Cl (centres unmarked) [Compound 45] | 100 | –
4.20 | CCn1c(C(=O)NC(c2ccc(F)c(C(F)(F)F)c2)C(F)(F)F)cc2cc(C(=O)NC3CCC3)c(Cl)nc21 (centres unmarked) [Compound 46] | 100 | –
3.39 | CCn1c(C(=O)NC(c2cccc(C(F)(F)F)c2)C(F)(F)F)cc2cc(C(=O)NCc3ncccn3)c(Cl)nc21 (centres unmarked) [Compound 47] | 100 | –
4.11 | CCn1c(C(=O)NC(c2ccc(F)c(Cl)c2)C(F)(F)F)cc2cc(C(=O)NC3CCC3)c(Cl)nc21 (centres unmarked) [Compound 49] | – | –
4.08 | CCn1c(C(=O)NC(c2ccc(F)c(C(F)(F)F)c2)C(F)(F)F)cc2cc(C(=O)NC(C)C)c(Cl)nc21 (centres unmarked) [Compound 50] | 100 | –
3.70 | CCNC(=O)c1cc2cc(C(=O)NC(c3cccc(C(F)(F)F)c3)C(F)(F)F)n(CC)c2nc1Cl (centres unmarked) [Compound 52] | 100 | –
4.47 | CCn1c(C(=O)NC(c2ccc(Cl)c(Cl)c2)C(F)(F)F)cc2cc(C(=O)NC3CCC3)c(Cl)nc21 (centres unmarked) [Compound 54] | – | –
4.29 | CCn1c(C(=O)NC(c2ccc(Cl)c(Cl)c2)C(F)(F)F)cc2cc(C(=O)NC(C)C)c(Cl)nc21 (centres unmarked) [Compound 56] | – | –
4.06 | CCn1c(C(=O)NC(c2cccc(C(F)(F)F)c2)C(F)(F)F)cc2cc(C(=O)NCC3CC3)c(Cl)nc21 (centres unmarked) [Compound 57] | 100 | –
4.49 | C#CCn1c(C(=O)NC(c2cccc(C(F)(F)F)c2)C(F)(F)F)cc2cc(C(=O)Nc3ccc(Cl)cn3)c(Cl)nc21 (centres unmarked) [Compound 61] | 83 | –
4.36 | CCn1c(C(=O)NC(c2cc(Cl)c(F)c(Cl)c2)C(F)(F)F)cc2cc(C(=O)NC3(C#N)CC3)c(C(F)(F)F)nc21 (centres unmarked) [Compound 77] | – | –
3.99 | C#CCn1c(C(=O)NC(c2cc(Cl)c(F)c(Cl)c2F)C(F)(F)F)cc2cc(C(=O)NC3(C#N)CC3)c(Cl)nc21 (centres unmarked) [Compound 80] | – | –
3.34 | C#CCn1c(C(=O)NC(c2cccc(C(F)(F)F)c2)C(F)(F)F)cc2cc(C(=O)NC3(C#N)CC3)c(C)nc21 (centres unmarked) [Compound 81] | – | –
4.45 | CCn1c(C(=O)NC(c2cc(Cl)c(F)c(Cl)c2F)C(F)(F)F)cc2cc(C(=O)NC3(C(N)=S)CC3)c(C(F)(F)F)nc21 (centres unmarked) [Compound 82] | – | –
4.02 | CCn1c(C(=O)NC(c2ccc(Cl)c(C(F)(F)F)c2)C(F)(F)F)cc2cc(C(=O)NC3(C#N)CC3)c(Cl)nc21 (centres unmarked) [Compound 83] | – | –
3.90 | CCn1c(C(=O)NC(c2ccc(Cl)c(C(F)(F)F)c2)C(F)(F)F)cc2cc(C(=O)NC3(C(N)=S)CC3)c(Cl)nc21 (centres unmarked) [Compound 84] | – | –
4.42 | CCn1c(C(=O)NC(c2cc(Cl)c(F)c(Cl)c2)C(F)(F)F)cc2cc(C(=O)NC3CC3)c(C(F)(F)F)nc21 (centres unmarked) [Compound 86] | – | –
3.72 | CCn1c(C(=O)NC(c2ccc(Cl)c(C(F)(F)F)c2)C(F)(F)F)cc2cc(C(=O)NC3(C(N)=S)CC3)c(C)nc21 (centres unmarked) [Compound 89] | – | –
3.91 | CCn1c(C(=O)NC(c2ccc(Cl)c(C(F)(F)F)c2)C(F)(F)F)cc2cc(C(=O)NC3(C#N)CC3)c(C)nc21 (centres unmarked) [Compound 90] | – | –
3.90 | CCn1c(C(=O)NC(c2ccc(Cl)c(C(F)(F)F)c2)C(F)(F)F)cc2cc(C(=O)NC3CC3)c(C)nc21 (centres unmarked) [Compound 91] | – | –
3.59 | CCn1c(C(=O)NC(c2cccc(C(F)(F)F)c2)C(F)(F)F)cc2cc(CNC(=O)C3CC3)c(C)nc21 (centres unmarked) [Compound 92] | – | –
3.45 | CCC(=O)NCc1cc2cc(C(=O)NC(c3cccc(C(F)(F)F)c3)C(F)(F)F)n(CC)c2nc1C (centres unmarked) [Compound 93] | 100 | –
